Holding throughout (type): cell-based
For experiment [1], the system named is IFN-α. Nature of the experiment: Induction of Interferon-α using fresh human peripheral blood mononuclear cells (PBMCs). The settings on record: PBMC, three donors, 24 hr incubation, response as % of 2 μM resiquimod control, read-out: mean pEC50 for IFN-α (converted). Here is the method: (§1) Assay for the Induction of Interferon-α and TNF-α Using Fresh Human Peripheral Blood Mononuclear Cells (PBMCs)
(§2) Compounds were dispensed by at 100× the required concentration in DMSO (1 uL/well in a flat bottom 96-well cell culture plate). Each compound was assayed in duplicate for each donor. Each plate contained a dilution series of the TLR7/8 agonist resiquimod as standard and Column 11 contained 1 μL of 200 μM resiquimod (giving a 2 μM final concentration, used to define the approximate maximal response to resiquimod).
(§3) Blood samples from three human donors were collected into sodium heparin (10 U/ml). 25 mL volumes of whole blood were overlaid onto 15 mL Histopaque in Leucosep tubes which were centrifuged at 400 g for 30 min and the band at the plasma/histopaque interface carefully removed into a sterile 50 mL conical tube. The volume in the tube was made up to 50 mL with sterile DPBS (Dulbecco's phosphate buffered saline, —CaCl2/MgCl2) and centrifuged at 300 g for 10 min. The cell pellet was resuspended in 20 mL of media (RPMI 1640 (Low endotoxin) supplemented with 10% v/v foetal calf serum (FCS, low endotoxin) 100 U/mL penicillin G, 100 μg/mL streptomycin, 10 mM L-glutamine and 1× non-essential amino acids), and the cells counted using the Nucleoview 3000 (Chemometec, Via-1 Cassette). The PBMCs concentration was adjusted to give a final concentration of 2×10^6/mL and 100 uL of this cells suspension was added to wells containing 1 μL of diluted test compound.
(§4) The cell preparations were incubated for 24 hr (37° C., 95% air, 5% CO2) after which a sample of the supernatant was removed using the Biomek FX and assayed for both IFN-α and TNF-α using the MSD (Mesoscale Discovery) electrochemiluminescence assay platform. The IFN-α assay was carried out similarly to that described above. The TNF-α assay was carried out as per kit instructions (Cat No K111BHB).
(§5) Cytokine released was expressed as a percentage of the 2 μM resiquimod control (column 11). This percentage was plotted against compound concentration and the pEC50 for the response determined by non-linear least squares curve fitting. For the IFN-α responses generally a 4 parameter logistic model was selected. For the TNF-α responses where a clear maximum response was obtained (i.e. a well defined plateau in the response was observed) then a 4 parameter model was generally used. If the upper asymptote of the curve wasn't well defined then the curve fitting was generally constrained to a maximal response of 100% (i.e. to the response to 2 μM resiquimod) or to the response of the highest concentration tested if this was greater than the resiquimod response. Some curves were bell shaped for one or both cytokines and the cytokine data on the down slope of the bell shaped response (i.e. concentrations above those giving the maximal response) were generally excluded from the fit, usually with the exception of the concentration immediately above the peak response. Curve fitting thus concentrated on the up slope of the dose response curve.

In experiment [2] the test system is IFN-α. Nature of the experiment: Induction of Interferon-α using fresh human whole blood (WB). As to conditions: three donors, overnight incubation, response as % of 2 μM resiquimod control, read-out: mean pEC50 for IFN-α (converted). Here is the method:
(§6) Assay for the Induction of Interferon-α and TNF-α Using Fresh Human Whole Blood (WB)
(§7) Compounds were prepared at 100× required concentration in DMSO in flat-bottom microtitre plates at a volume of 1.5 μL. Columns 1-10 contained a 1 in 4 serial dilution of the test compound. Included on each plate was a serial dilution of the TLR7/8 agonist resiquimod as a standard and Column 11 contained 1.5 μl of 200 μM resiquimod (giving a 2 μM final concentration, used to define the approximate maximal response to resiquimod). Each compound was assayed in duplicate for each donor.
(§8) Blood samples from three human donors were collected into sodium heparin (10 U/ml). 150 μl of whole Blood was dispensed into Col 1 to 11 of assay plates containing 1.5 μl of test compound or standard in DMSO. Plates were placed in an incubator overnight (37° C., 95% air, 5% CO2). Following the overnight incubation, plates were removed from the incubator & mixed on an orbital shaker for approximately 1 minute. 100 μl of 0.9% saline was added to each well and the plates mixed again on an orbital shaker. Plates were then centrifuged (2500 rpm, 10 mins), after which a sample of plasma was removed using a Biomek FX and assayed for both IFN-α and TNF-α using the MSD (Mesoscale Discovery) electrochemiluminescence assay platform. The IFN-α assay was carried out similarly to that described above. The TNF-α assay was carried out as per kit instructions (Cat No K111BHB).
as §5, with “IFN-α responses,” for “IFN-α responses”

Experiment [3] deals with TNF-α. Nature of the experiment: Induction of TNF-α using fresh human peripheral blood mononuclear cells (PBMCs). The settings on record: PBMC, three donors, 24 hr incubation, response as % of 2 μM resiquimod control, read-out: mean pEC50 for TNF-α (converted). Here is the method:
as §1, §2, §3, §4, §5

Experiment [4] concerns TNF-α. Nature of the experiment: Induction of TNF-α using fresh human whole blood (WB). As to conditions: three donors, overnight incubation, response as % of 2 μM resiquimod control, read-out: mean pEC50 for TNF-α (converted). Here is the method: as §6, §7, §8
as §5, with “IFN-α responses,” for “IFN-α responses”

Each structure is given as a SMILES string. Structures can show the parent of a compound that is named as a salt. Some results are limits rather than exact numbers.

`COCCN(CCCCCCc1c(C)[nH]c2c(N)nc(C)nc12)CCOC` [Example 6, 7-(6-(bis(2-Methoxyethyl)amino)hexyl)-2,6-dimethyl-5H-pyrrolo[3,2-d]pyrimidin-4-amine]: the EC50 in the experiment on IFN-α [1] is 0.501 to 3.98 µM; with IFN-α [2], no less than 2 µM; in the experiment on TNF-α [3], no less than 50.1 µM; in the experiment on TNF-α [4] it was no less than 50.1 µM.

In the case of `Cc1nc(N)c2[nH]c(C)c(CCCCCCN3C[C@H](O)C[C@H](O)C3)c2n1` [Example 8, (3R,5S)-1-(6-(4-amino-2,6-dimethyl-5H-pyrrolo[3,2-d]pyrimidin-7-yl)hexyl)piperidine-3,5-diol], the EC50 in the experiment on IFN-α [1] was 0.501 to 3.98 µM; in the experiment with IFN-α [2], no less than 2 µM; with TNF-α [3] it was no less than 50.1 µM; in the experiment with TNF-α [4] it was no less than 50.1 µM.

For the compound `Cc1nc(N)c2[nH]c(C)c(CCCCCN3CCCC3)c2n1` [Example 2, 2,6-Dimethyl-7-(5-(pyrrolidin-1-yl)pentyl)-5H-pyrrolo[3,2-d]pyrimidin-4-amine maleate], the EC50 with IFN-α [1] was 0.501 to 3.98 µM; with IFN-α [2] it was no less than 2 µM; in the experiment with TNF-α [3], no less than 50.1 µM; in the experiment on TNF-α [4] it was no less than 50.1 µM.

Take `Cc1nc(N)c2[nH]c(C)c(CCCCCCN3C[C@H](O)C[C@@H](O)C3)c2n1` [Example 9, (3R,5R)-1-(6-(4-Amino-2,6-dimethyl-5H-pyrrolo[3,2-d]pyrimidin-7-yl)hexyl)piperidine-3,5-diol]: the EC50 with IFN-α [1] is 0.501 to 3.98 µM; in the experiment with IFN-α [2], no less than 2 µM; in the experiment with TNF-α [3], no less than 50.1 µM; in the experiment on TNF-α [4] it was no less than 50.1 µM.

`Cc1nc(N)c2[nH]c(C)c(CCCCCCN(CCO)CCO)c2n1` [Example 4, 2,2′-((6-(4-Amino-2,6-dimethyl-5H-pyrrolo[3,2-d]pyrimidin-7-yl)hexyl)azanediyl)diethanol formate]: the EC50 is 0.501 to 3.98 µM with IFN-α [1], no less than 2 µM in the experiment on IFN-α [2], no less than 50.1 µM in the experiment with TNF-α [3] and no less than 50.1 µM with TNF-α [4].

`Cc1nc(N)c2[nH]c(C)c(CCCCCCN3CCCCC3)c2n1` [Example 1, 2,6-Dimethyl-7-(6-(piperidin-1-yl)hexyl)-5H-pyrrolo[3,2-d]pyrimidin-4-amine]: the EC50 in the experiment on IFN-α [1] is 0.501 to 3.98 µM; in the experiment on IFN-α [2], no less than 2 µM; in the experiment on TNF-α [3], no less than 50.1 µM; with TNF-α [4], no less than 50.1 µM.

Turning to `Cc1nc(N)c2[nH]c(C)c(CCCCCN(CCO)CCO)c2n1` [Example 3, 2,2′-((5-(4-Amino-2,6-dimethyl-5H-pyrrolo[3,2-d]pyrimidin-7-yl)pentyl)azanediyl)diethanol formate], the EC50 in the experiment with IFN-α [1] was 0.501 to 3.98 µM; in the experiment with IFN-α [2], no less than 2 µM; with TNF-α [3], no less than 50.1 µM; in the experiment on TNF-α [4], no less than 50.1 µM.

`COCCN(CCO)CCCCCCc1c(C)[nH]c2c(N)nc(C)nc12` [Example 5, 2-((6-(4-Amino-2,6-dimethyl-5H-pyrrolo[3,2-d]pyrimidin-7-yl)hexyl)(2-methoxyethyl)amino)ethanol]: the EC50 in the experiment with IFN-α [1] is 0.501 to 3.98 µM; in the experiment on IFN-α [2], no less than 2 µM; with TNF-α [3], no less than 50.1 µM; in the experiment with TNF-α [4], no less than 50.1 µM.

On to `Cc1nc(N)c2[nH]c(C)c(CCCCCCNCCO)c2n1` [Example 7, 2-((6-(4-Amino-2,6-dimethyl-5H-pyrrolo[3,2-d]pyrimidin-7-yl)hexyl)amino)ethanol], for which the EC50 in the experiment with IFN-α [1] was 0.501 to 3.98 µM; in the experiment on IFN-α [2] it was no less than 2 µM; with TNF-α [3], no less than 50.1 µM; in the experiment on TNF-α [4], no less than 50.1 µM.

On to `Cc1nc(N)c2[nH]c(C)c(CCCCCCN(C)C)c2n1` [Example 10, 7-(6-(Dimethylamino)hexyl)-2,6-dimethyl-5H-pyrrolo[3,2-]pyrimidin-4-amine], for which the EC50 was no less than 2 µM in the experiment with IFN-α [2] and no less than 50.1 µM in the experiment with TNF-α [4].

(Values after patent publication US10202386B2, “Pyrrolo[3,2-D]pyrimidine derivatives as inducers of human interferon” (GlaxoSmithKline Intellectual Property (No.2) Limited, priority 2014, dated 2019).)
